Source: PubChem BioAssay AID2060619 (Molecular Pharmacology Branch, DTP, NCI, 2025)
Several values for one entry are separate records, joined by “and”; a condition that tells them apart may be missing. Equal values may be shown once.

System: 323965-272-R-J2-PDC complex spheroid viability
Assay: Anticancer human tumor 323965-272-R-J2-PDC patient-derived pancreatic carcinoma cell line growth inhibition [CLK]
Conditions: for viability, T/C: stronger effect = lower value; active = viability on the fitted dose curve at most 10% of control; inactive = the rest
How it was run: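 Multi-cell-type spheroids combined patient-derived tumor cells with HUVEC endothelial cells and human mesenchymal stem cells. Paired agents were dosed in half-log steps down from about clinical Cmax, or from 10 microM where Cmax was unknown.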

[1] = curve of first compound, second compound 0.0316 µM
[2] = curve of first compound, second compound 0.1 µM
[3] = curve of first compound, second compound 0.316 µM
[4] = curve of first compound, second compound 1 µM
[5] = curve of first compound, second compound 3.16 µM
[6] = curve of first compound, second compound 10 µM
[7] = second compound 0.0316 µM, first compound 0.0316 µM
[8] = second compound 0.0316 µM, first compound 0.1 µM
[9] = second compound 0.0316 µM, first compound 0.316 µM
[10] = second compound 0.0316 µM, first compound 1 µM
[11] = second compound 0.0316 µM, first compound 3.16 µM
[12] = second compound 0.0316 µM, first compound 10 µM
[13] = second compound 0.1 µM, first compound 0.0316 µM
[14] = second compound 0.1 µM, first compound 0.1 µM
[15] = second compound 0.1 µM, first compound 0.316 µM
[16] = second compound 0.1 µM, first compound 1 µM
[17] = second compound 0.1 µM, first compound 3.16 µM
[18] = second compound 0.1 µM, first compound 10 µM
[19] = second compound 0.316 µM, first compound 0.0316 µM
[20] = second compound 0.316 µM, first compound 0.1 µM
[21] = second compound 0.316 µM, first compound 0.316 µM
[22] = second compound 0.316 µM, first compound 1 µM
[23] = second compound 0.316 µM, first compound 3.16 µM
[24] = second compound 0.316 µM, first compound 10 µM
[25] = second compound 1 µM, first compound 0.0316 µM
[26] = second compound 1 µM, first compound 0.1 µM
[27] = second compound 1 µM, first compound 0.316 µM
[28] = second compound 1 µM, first compound 1 µM
[29] = second compound 1 µM, first compound 3.16 µM
[30] = second compound 1 µM, first compound 10 µM
[31] = second compound 3.16 µM, first compound 0.0316 µM
[32] = second compound 3.16 µM, first compound 0.1 µM
[33] = second compound 3.16 µM, first compound 0.316 µM
[34] = second compound 3.16 µM, first compound 1 µM
[35] = second compound 3.16 µM, first compound 3.16 µM
[36] = second compound 3.16 µM, first compound 10 µM
[37] = second compound 10 µM, first compound 0.0316 µM
[38] = second compound 10 µM, first compound 0.1 µM
[39] = second compound 10 µM, first compound 0.316 µM
[40] = second compound 10 µM, first compound 1 µM
[41] = second compound 10 µM, first compound 3.16 µM
[42] = second compound 10 µM, first compound 10 µM
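Also: spheroids exposed to agents for seven days before readout.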
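For viability, T/C in this document: percent of DMSO vehicle control wells so 100% = untreated growth.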

O=c1[nH]cc(F)c(=O)[nH]1
inactive: viability, T/C (compound 0.0316 µM) 116% and 95.3% | viability, T/C (compound 0.1 µM) 105% and 91.3% | viability, T/C (compound 0.316 µM) 111% and 103% | viability, T/C (compound 1 µM) 96.9% and 96.8% | viability, T/C (compound 3.16 µM) 67.9% and 76.6% | viability, T/C (compound 10 µM) 51.1% and 52.5%
> 10 µM: IC50 (curve of compound)

Nc1ccccc1NC(=O)c1ccc(CNC(=O)OCc2cccnc2)cc1 + CNC(=O)c1ccc(Nc2nc(OC3CCCC3)c3c(-c4ccc5nc(C)oc5c4)c[nH]c3n2)c(OC)c1
1.11 µM: IC50 [4]
< 0.0316 µM: IC50 [5] | IC50 [6]
inactive: viability, T/C [7] 112% | viability, T/C [8] 113% | viability, T/C [9] 118% | viability, T/C [10] 93.5% | viability, T/C [11] 58.4% | viability, T/C [12] 41.4% | viability, T/C [13] 90.3% | viability, T/C [14] 89% | viability, T/C [15] 98.3% | viability, T/C [16] 92.2% | viability, T/C [17] 62.1% | viability, T/C [18] 42.8% | viability, T/C [19] 67.2% | viability, T/C [20] 69.2% | viability, T/C [21] 72.6% | viability, T/C [22] 75.3% | viability, T/C [23] 43.4% | viability, T/C [24] 28.8% | viability, T/C [25] 62.4% | viability, T/C [26] 57.5% | viability, T/C [27] 58.7% | viability, T/C [28] 51.7% | viability, T/C [29] 35.3% | viability, T/C [30] 26.2% | viability, T/C [31] 50.7% | viability, T/C [32] 47.7% | viability, T/C [33] 49.8% | viability, T/C [34] 44% | viability, T/C [35] 32.2% | viability, T/C [36] 25.5% | viability, T/C [37] 41% | viability, T/C [38] 47.3% | viability, T/C [39] 47.1% | viability, T/C [40] 37.5% | viability, T/C [41] 31.2% | viability, T/C [42] 25.7%
5.45 µM: IC50 [1]
2.41 µM: IC50 [3]
6.5 µM: IC50 [2]

Nc1ccccc1NC(=O)c1ccc(CNC(=O)OCc2cccnc2)cc1 + CN1CCN(c2cc(C(=O)Nc3cc4cc(-c5cnn(C)c5)ccc4cn3)ccn2)CC1
inactive: viability, T/C [7] 92.1% | viability, T/C [8] 92.3% | viability, T/C [9] 93.6% | viability, T/C [10] 99% | viability, T/C [11] 63.5% | viability, T/C [12] 43.8% | viability, T/C [13] 79% | viability, T/C [14] 75.9% | viability, T/C [15] 80% | viability, T/C [16] 78.7% | viability, T/C [17] 48.6% | viability, T/C [18] 30.6% | viability, T/C [19] 26.4% | viability, T/C [20] 24.6% | viability, T/C [21] 21.4% | viability, T/C [22] 21.8% | viability, T/C [23] 17.1% | viability, T/C [24] 16.8%
6.96 µM: IC50 [1]
< 0.0316 µM: IC50 [3] | IC50 [4] | IC50 [5] | IC50 [6]
3 µM: IC50 [2]
active: viability, T/C [25] 3.43% | viability, T/C [26] 3.41% | viability, T/C [27] 4.13% | viability, T/C [28] 2.18% | viability, T/C [29] 2.06% | viability, T/C [30] 0.81% | viability, T/C [31] 3.66% | viability, T/C [32] 5.59% | viability, T/C [33] 6.21% | viability, T/C [34] 4.43% | viability, T/C [35] 2.9% | viability, T/C [36] 3.42% | viability, T/C [37] 3.69% | viability, T/C [38] 4.56% | viability, T/C [39] 5.4% | viability, T/C [40] 4.41% | viability, T/C [41] 4.37% | viability, T/C [42] 2.69%
